Measurements reported in patent publication US8759384B2, “Oxo-imidazolyl compounds” (priority 2008, dated 2014).

Columns and labels:
[1] = tested on: Staphylococcus aureus MRSA; assay: microbe, parasite or virus in culture; format: cell-based; conditions: Conc. 3 μM, read-out: Inhibitive activity MRSA (% inhibition of growth)
B. anthracis ΔSterne = assay: microbe, parasite or virus in culture; format: cell-based; conditions: Bacillus anthracis; Conc. 3 μM; read-out: Inhibitive activity Anthracis (% inhibition of growth)

With `O=C(O)C(Cc1ccccc1)N1C(=O)/C(=C\c2ccc(-c3ccc(Cl)c(Cl)c3)o2)NC1=S` (centres unmarked) [EX. 6, 2-(4-((5-(3,4-Dichlorophenyl)furan-2-yl)methylene)-5-oxo-2-thioxoimidazolidin-1-yl)-3-phenylpropanoic acid] as the compound, how does the inhibition at 3 µM [1] read?
Its inhibition at 3 µM is -3.72%.

Which inhibition at 3 µM (B. anthracis ΔSterne) does the source give for `O=C(O)C(Cc1ccccc1)N1C(=O)/C(=C\c2ccc(-c3ccc(Br)cc3)s2)NC1=S` (centres unmarked) [EX. 7, 2-(4-((5-(4-Bromophenyl)thiophen-2-yl)methylene)-5-oxo-2-thioxoimidazolidin-1-yl)-3-phenylpropanoic acid] here?
Its inhibition at 3 µM is 67.9%.
